Our source for the DC50 and Dmax values is patent US20240279202A1 (NURIX THERAPEUTICS, INC., priority 2021, published 2024).

What is called DC50 is the midpoint of the concentration-degradation curve. Broadly, the Dmax is the largest share of the target that was removed. A higher Dmax goes with a fuller loss of target.

This experiment deals with T1, ITK (Homo sapiens, UniProt Q08881).
T1 sequence (Q08881 1-620): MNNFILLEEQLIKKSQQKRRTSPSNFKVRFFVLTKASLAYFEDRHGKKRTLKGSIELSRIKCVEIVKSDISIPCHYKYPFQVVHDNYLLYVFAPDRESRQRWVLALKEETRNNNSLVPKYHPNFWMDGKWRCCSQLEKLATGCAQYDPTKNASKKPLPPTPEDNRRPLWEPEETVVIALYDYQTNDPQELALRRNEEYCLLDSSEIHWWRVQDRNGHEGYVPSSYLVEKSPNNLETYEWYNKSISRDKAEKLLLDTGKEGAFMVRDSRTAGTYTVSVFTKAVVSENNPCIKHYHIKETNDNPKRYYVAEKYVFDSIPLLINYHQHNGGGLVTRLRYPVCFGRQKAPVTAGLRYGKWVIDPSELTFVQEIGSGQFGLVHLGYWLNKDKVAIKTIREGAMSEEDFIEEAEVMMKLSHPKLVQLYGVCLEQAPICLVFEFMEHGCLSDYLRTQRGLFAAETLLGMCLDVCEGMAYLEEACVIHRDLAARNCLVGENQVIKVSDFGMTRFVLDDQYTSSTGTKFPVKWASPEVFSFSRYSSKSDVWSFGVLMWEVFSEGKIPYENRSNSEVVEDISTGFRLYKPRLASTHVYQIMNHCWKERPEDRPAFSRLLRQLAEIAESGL
In words: ITK degradation HiBiT assay. It counts as cell-based. Also on record: expressed in transfected cells; host or cells: Molt4 (ATCC CRL-1552), monoclonal clone 1C10, engineered to carry the HiBiT tag. The note with it: 4 hrs; for DC50: C-terminal HiBiT-tagged Molt4 cells; for Dmax: MOLT-4, C-terminal HiBiT-tagged Molt4 cells. The procedure, abridged: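 C-terminal HiBiT-tagged Molt4 cells (clone 1C10) treated 4 h at 32° C with an 11-point, 5-fold compound dilution series (0.5% DMSO). HiBiT lytic detection with LgBiT then luminescence read; % ITK remaining versus concentration fit by four-parameter variable-slope model to give DC50 and Dmax.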
A general note: With HiBiT, luminescence reflects the tagged protein that the partner subunit can reach.

For `C[C@@]12Cc3[nH]nc(C(=O)Nc4cnn(CC5CN(C(=O)C6CCN(c7ccc(C8CCC(=O)NC8=O)cn7)CC6)C5)c4)c3C[C@@H]1C2(F)F` (stereo partly drawn) [Compound 50, (4aS,5aR)-N-(1-((1-(1-(5-(2,6-dioxopiperidin-3-yl)pyridin-2-yl)piperidine-4-carbonyl)azetidin-3-yl)methyl)-1H-pyrazol-4-yl)-5,5-difluoro-5a-methyl-1,4,4a,5,5a,6-hexahydrocyclopropa[f]indazole-3-carboxamide], it took 0.21 nM to reach half-maximal degradation (DC50). The compound `C[C@@H](C(=O)N(C)c1ccc2cc(-c3n[nH]c4c3C[C@@H]3C(F)(F)[C@]3(C)C4)[nH]c2c1)N1CCN(CC2CCN(c3cccc4c3n(C)c(=O)n4C3CCC(=O)NC3=O)CC2)CC1` (stereo partly drawn) [Compound 65, (2S)—N-(2-((4aS,5aR)-5,5-difluoro-5a-methyl-1,4,4a,5,5a,6-hexahydrocyclopropa[f]indazol-3-yl)-1H-indol-6-yl)-2-(4-((1-(1-(2,6-dioxopiperidin-3-yl)-3-methyl-2-oxo-2,3-dihydro-1H-benzo[d]imidazol-4-yl)piperidin-4-yl)methyl)piperazin-1-yl)-N-methylpropanamide] came in with a DC50 of 0.35 nM and a Dmax of 80%. In the same order, the values of `C[C@@H](C(=O)N(C)c1ccc2cc(-c3n[nH]c4c3C[C@@H]3C(F)(F)[C@]3(C)C4)[nH]c2c1)N1CCN(CC2CCN(c3ccc(C(=O)NC4CCC(=O)NC4=O)nc3)CC2)CC1` (stereo partly drawn) [Compound 66, 5-(4-((4-((S)-1-((2-((4aS,5aR)-5,5-difluoro-5a-methyl-1,4,4a,5,5a,6-hexahydrocyclopropa[f]indazol-3-yl)-1H-indol-6-yl)(methyl)amino)-1-oxopropan-2-yl)piperazin-1-yl)methyl)piperidin-1-yl)-N-(2,6-dioxopiperidin-3-yl)picolinamide] are 0.55 nM and 71%. For `CN(C(=O)CCC1CCN(c2ccc(C(=O)NC3CCC(=O)NC3=O)nc2)C1)c1ccc2cc(-c3n[nH]c4c3C[C@@H]3C(F)(F)[C@]3(C)C4)[nH]c2c1` (stereo partly drawn) [Compound 69, 5-(3-(3-((2-((4aS,5aR)-5,5-difluoro-5a-methyl-1,4,4a,5,5a,6-hexahydrocyclopropa[f]indazol-3-yl)-1H-indol-6-yl)(methyl)amino)-3-oxopropyl)pyrrolidin-1-yl)-N-(2,6-dioxopiperidin-3-yl)picolinamide], the Dmax turned out to be 42%. On to `CN(C(=O)CN1CCC2(CC1)CCN(c1ccc3c(c1)C(=O)N(C1CCC(=O)NC1=O)C3=O)C2)c1ccc2cc(-c3n[nH]c4c3C[C@@H]3C(F)(F)[C@]3(C)C4)[nH]c2c1` (stereo partly drawn) [Compound 72, N-(2-((4aS,5aR)-5,5-difluoro-5a-methyl-1,4,4a,5,5a,6-hexahydrocyclopropa[f]indazol-3-yl)-1H-indol-6-yl)-2-(2-(2-(2,6-dioxopiperidin-3-yl)-1,3-dioxoisoindolin-5-yl)-2,8-diazaspiro[4.5]decan-8-yl)-N-methylacetamide], for which the DC50 came to 0.12 nM and the maximal degradation (Dmax) amounted to 86%. `CN(C(=O)CC1CCN(CC2CCN(c3ccc(C4CCC(=O)NC4=O)cn3)CC2)CC1)c1ccc2cc(-c3n[nH]c4c3C[C@@H]3C(F)(F)[C@]3(C)C4)[nH]c2c1` (stereo partly drawn) [Compound 73, N-(2-((4aS,5aR)-5,5-difluoro-5a-methyl-1,4,4a,5,5a,6-hexahydrocyclopropa[f]indazol-3-yl)-1H-indol-6-yl)-2-(1-((1-(5-(2,6-dioxopiperidin-3-yl)pyridin-2-yl)piperidin-4-yl)methyl)piperidin-4-yl)-N-methylacetamide]: the DC50 worked out at 1.6 nM. In other words, the single-digit nanomolar range. The compound `CN(C(=O)CC1CCN(CC2CCN(c3ccc(C(=O)NC4CCC(=O)NC4=O)nc3)CC2)CC1)c1ccc2cc(-c3n[nH]c4c3C[C@@H]3C(F)(F)[C@]3(C)C4)[nH]c2c1` (stereo partly drawn) [Compound 75, 5-(4-((4-(2-((2-((4aS,5aR)-5,5-difluoro-5a-methyl-1,4,4a,5,5a,6-hexahydrocyclopropa[f]indazol-3-yl)-1H-indol-6-yl)(methyl)amino)-2-oxoethyl)piperidin-1-yl)methyl)piperidin-1-yl)-N-(2,6-dioxopiperidin-3-yl)picolinamide] displayed a DC50 of 0.5 nM and a Dmax of 83%.
